In ChEMBL document CHEMBL2163286, “1,2,3,4-tetrahydroquinoline-based selective human neuronal nitric oxide synthase (nNOS) inhibitors: lead optimization studies resulting in the identification of N-(1-(2-(methylamino)ethyl)-1,2,3,4-tetrahydroquinolin-6-yl)thiophene-2-carboximidamide as a preclinical development candidate” (J Med Chem, 2012):

Experiments:
[1] = molecular target: Voltage-gated inwardly rectifying potassium channel KCNH2 (Homo sapiens, UniProt Q12809); experiment: Inhibition of human ERG expressed in HEK293 cells at -80 mV holding potential assessed as reduction in tail current amplitude by conventional patch clamp assay; format: cell-based
[2] = molecular target: Nitric oxide synthase, inducible (Homo sapiens, UniProt P35228); experiment: Inhibition of human recombinant iNOS expressed in Sf9 cells assessed as reduction in conversion of [3H]L-arginine to [3H]L-citrulline preincubated for 15 mins by radiometric method
Nitric oxide synthase 3 = molecular target: T1, Nitric oxide synthase 3 (Homo sapiens, UniProt P29474); experiment: Inhibition of human eNOS expressed in Sf9 cells assessed as reduction in conversion of [3H]L-arginine to [3H]L-citrulline preincubated for 15 mins by radiometric method
T1 sequence (P29474 whole entry): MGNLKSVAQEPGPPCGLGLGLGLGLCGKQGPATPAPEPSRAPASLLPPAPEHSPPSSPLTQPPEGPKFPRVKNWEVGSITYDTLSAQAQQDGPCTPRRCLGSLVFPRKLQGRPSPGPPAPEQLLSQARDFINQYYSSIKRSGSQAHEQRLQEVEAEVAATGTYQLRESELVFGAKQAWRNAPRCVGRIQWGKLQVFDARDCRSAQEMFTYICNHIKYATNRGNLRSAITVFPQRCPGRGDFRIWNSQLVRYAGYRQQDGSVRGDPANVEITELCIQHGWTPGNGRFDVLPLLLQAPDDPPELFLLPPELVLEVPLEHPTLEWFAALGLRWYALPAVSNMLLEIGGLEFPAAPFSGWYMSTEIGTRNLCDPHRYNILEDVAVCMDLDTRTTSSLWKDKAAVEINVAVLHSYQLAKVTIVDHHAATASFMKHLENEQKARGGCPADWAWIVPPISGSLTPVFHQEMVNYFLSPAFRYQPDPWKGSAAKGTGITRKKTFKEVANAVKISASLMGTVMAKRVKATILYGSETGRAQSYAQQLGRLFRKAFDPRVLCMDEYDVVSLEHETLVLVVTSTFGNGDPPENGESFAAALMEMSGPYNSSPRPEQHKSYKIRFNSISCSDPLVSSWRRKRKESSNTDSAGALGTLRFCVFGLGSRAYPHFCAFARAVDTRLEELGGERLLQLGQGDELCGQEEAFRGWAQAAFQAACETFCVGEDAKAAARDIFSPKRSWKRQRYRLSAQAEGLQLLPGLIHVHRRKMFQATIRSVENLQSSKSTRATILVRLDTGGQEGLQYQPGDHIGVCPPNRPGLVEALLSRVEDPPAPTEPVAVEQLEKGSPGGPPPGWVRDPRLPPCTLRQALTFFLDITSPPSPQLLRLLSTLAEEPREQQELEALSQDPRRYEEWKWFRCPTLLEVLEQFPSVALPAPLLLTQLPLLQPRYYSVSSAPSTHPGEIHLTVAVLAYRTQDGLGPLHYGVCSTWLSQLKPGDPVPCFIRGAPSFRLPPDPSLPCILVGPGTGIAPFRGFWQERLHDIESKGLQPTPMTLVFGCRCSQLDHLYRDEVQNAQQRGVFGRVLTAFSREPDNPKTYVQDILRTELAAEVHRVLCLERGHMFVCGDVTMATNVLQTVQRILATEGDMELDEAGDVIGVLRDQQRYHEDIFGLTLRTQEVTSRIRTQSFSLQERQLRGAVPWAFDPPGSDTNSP

Nitric oxide synthase 1 = Nitric oxide synthase 1 (Homo sapiens, UniProt P29475); experiment: Inhibition of human nNOS expressed in Sf9 cells assessed as reduction in conversion of [3H]L-arginine to [3H]L-citrulline preincubated for 15 mins by radiometric method
Sequence of Nitric oxide synthase 1 (P29475 whole entry): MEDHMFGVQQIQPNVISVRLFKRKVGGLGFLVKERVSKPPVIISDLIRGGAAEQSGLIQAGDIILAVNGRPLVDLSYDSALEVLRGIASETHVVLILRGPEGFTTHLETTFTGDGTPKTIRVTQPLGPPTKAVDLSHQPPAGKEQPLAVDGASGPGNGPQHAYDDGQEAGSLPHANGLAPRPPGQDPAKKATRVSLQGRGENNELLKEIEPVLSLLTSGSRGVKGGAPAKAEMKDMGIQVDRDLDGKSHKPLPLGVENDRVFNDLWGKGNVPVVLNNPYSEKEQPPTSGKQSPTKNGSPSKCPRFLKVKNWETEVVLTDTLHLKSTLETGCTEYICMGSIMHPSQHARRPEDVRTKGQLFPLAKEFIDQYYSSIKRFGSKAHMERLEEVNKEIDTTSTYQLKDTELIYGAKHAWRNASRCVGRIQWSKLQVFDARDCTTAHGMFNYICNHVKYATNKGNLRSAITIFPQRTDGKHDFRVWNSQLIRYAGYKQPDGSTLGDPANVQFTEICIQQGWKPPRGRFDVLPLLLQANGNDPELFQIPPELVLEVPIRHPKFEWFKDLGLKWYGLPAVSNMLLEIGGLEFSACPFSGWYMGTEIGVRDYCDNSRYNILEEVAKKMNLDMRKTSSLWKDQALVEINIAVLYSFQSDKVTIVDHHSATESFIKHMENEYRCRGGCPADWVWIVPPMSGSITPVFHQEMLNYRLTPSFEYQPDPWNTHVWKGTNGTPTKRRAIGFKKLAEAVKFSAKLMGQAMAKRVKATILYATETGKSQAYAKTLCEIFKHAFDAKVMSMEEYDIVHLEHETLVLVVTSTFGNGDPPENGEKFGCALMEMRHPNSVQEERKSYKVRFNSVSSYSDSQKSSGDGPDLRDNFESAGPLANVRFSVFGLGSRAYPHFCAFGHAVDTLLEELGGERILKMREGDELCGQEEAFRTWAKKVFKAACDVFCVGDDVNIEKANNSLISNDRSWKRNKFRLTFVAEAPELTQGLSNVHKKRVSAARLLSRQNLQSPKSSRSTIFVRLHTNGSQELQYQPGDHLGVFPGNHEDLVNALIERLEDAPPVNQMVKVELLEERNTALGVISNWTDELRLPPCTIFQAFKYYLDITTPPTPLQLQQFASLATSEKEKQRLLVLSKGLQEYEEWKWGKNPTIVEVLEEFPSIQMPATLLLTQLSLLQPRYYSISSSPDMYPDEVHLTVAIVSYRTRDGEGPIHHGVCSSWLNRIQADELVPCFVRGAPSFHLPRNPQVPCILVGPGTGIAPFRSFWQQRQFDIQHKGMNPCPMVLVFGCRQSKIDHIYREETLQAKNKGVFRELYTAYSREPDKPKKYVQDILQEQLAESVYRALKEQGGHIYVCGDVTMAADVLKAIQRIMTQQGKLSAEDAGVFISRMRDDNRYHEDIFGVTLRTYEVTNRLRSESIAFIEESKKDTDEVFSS

Sequence of Voltage-gated inwardly rectifying potassium channel KCNH2 (Q12809 whole entry): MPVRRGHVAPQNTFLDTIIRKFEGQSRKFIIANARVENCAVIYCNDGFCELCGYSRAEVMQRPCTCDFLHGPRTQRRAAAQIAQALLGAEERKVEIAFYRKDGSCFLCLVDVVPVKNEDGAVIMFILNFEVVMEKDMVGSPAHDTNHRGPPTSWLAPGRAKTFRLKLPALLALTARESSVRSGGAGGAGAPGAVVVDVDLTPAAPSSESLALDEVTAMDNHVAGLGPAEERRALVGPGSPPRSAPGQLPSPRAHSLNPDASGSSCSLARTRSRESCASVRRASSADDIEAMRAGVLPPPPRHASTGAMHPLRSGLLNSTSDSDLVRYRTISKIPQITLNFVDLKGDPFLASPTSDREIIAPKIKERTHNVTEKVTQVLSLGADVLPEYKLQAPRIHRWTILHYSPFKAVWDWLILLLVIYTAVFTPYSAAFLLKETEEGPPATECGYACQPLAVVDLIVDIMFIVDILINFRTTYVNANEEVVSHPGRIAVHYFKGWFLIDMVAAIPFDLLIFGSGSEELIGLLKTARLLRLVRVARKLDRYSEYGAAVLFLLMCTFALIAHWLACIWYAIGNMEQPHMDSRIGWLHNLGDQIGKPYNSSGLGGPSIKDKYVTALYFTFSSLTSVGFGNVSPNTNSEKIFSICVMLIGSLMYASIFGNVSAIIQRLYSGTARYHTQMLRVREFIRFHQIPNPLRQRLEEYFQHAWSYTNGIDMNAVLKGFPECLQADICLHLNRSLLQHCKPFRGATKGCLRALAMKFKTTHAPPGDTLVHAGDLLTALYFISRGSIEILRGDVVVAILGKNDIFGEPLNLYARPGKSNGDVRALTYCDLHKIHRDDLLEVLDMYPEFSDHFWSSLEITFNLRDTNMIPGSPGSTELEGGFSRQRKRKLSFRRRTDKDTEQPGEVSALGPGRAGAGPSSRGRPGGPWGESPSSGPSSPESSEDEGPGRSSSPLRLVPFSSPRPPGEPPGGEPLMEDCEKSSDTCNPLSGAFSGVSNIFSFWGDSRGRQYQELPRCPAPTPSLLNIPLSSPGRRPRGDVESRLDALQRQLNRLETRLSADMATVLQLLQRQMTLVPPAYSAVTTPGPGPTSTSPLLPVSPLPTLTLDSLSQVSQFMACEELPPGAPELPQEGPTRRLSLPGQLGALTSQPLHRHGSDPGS
Sequence of Nitric oxide synthase, inducible (P35228 whole entry): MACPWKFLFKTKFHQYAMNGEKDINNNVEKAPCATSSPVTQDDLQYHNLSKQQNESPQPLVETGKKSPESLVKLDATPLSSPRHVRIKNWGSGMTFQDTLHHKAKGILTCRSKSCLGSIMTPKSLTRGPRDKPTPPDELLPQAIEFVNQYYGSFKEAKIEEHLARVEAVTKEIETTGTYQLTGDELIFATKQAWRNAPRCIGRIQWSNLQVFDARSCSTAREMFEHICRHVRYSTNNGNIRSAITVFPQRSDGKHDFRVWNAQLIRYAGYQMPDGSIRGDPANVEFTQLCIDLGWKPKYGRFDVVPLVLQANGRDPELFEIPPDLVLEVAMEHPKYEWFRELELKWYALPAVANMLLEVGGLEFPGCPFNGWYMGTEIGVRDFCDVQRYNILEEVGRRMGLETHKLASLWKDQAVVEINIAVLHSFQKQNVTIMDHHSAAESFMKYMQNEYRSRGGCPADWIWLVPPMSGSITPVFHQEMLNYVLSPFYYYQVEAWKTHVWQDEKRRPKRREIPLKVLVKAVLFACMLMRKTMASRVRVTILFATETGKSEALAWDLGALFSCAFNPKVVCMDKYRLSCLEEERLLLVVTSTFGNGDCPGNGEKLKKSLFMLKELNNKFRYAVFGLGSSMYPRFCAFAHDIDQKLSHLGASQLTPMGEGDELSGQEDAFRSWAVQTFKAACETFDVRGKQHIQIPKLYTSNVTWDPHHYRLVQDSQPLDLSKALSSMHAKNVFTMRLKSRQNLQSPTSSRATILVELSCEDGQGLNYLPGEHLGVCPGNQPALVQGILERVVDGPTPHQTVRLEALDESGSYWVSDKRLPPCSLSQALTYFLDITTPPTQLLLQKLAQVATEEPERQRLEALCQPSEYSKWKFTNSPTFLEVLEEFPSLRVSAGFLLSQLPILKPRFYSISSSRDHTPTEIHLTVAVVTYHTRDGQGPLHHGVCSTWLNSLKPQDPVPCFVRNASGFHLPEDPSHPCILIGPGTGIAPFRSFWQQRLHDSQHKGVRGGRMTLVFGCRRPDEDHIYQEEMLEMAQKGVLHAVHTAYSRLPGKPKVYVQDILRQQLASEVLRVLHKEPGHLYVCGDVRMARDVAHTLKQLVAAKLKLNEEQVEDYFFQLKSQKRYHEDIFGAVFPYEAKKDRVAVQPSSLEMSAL

| Compound | IC50 [2] [µM] | IC50 (Nitric oxide synthase 3) [µM] | IC50 (Nitric oxide synthase 1) [µM] | IC50 [1] [µM] |
| --- | --- | --- | --- | --- |
| N=C(Nc1ccc2c(c1)CCCN2C1CCNC1)c1cccs1 (racemic) | – | – | – | > 30 |
| N=C(Nc1ccc2c(c1)CCCN2CCCNCCO)c1cccs1 | > 100 | 39.2 | 0.169 | > 30 |

The next lines start with results.

| IC50 [2] [µM] | IC50 (Nitric oxide synthase 3) [µM] | IC50 (Nitric oxide synthase 1) [µM] | Compound | IC50 [1] [µM] |
| --- | --- | --- | --- | --- |
| 73 | 32.9 | 0.115 | N=C(Nc1ccc2c(c1)CCCN2CCNCCO)c1cccs1 | > 30 |
| 89.4 | – | 0.267 | CC(C)NCCN1CCCc2cc(NC(=N)c3cccs3)ccc21 | 27.5 |
| > 100 | 46.5 | 0.139 | CCNCCN1CCCc2cc(NC(=N)c3cccs3)ccc21 | > 30 |
